The values below come from US12679807B2 (MERCK SHARP & DOHME LLC, priority 2020, dated 2026).

Molecules are shown by their SMILES.

This test has as its target T1, GCS enzyme contained within Golgi preparations isolated from human A375 malignant melanoma skin cells (Homo sapiens, UniProt Q16739).
T1 construct: endogenous levels of GCS enzyme contained within Golgi preparations isolated from human A375 malignant melanoma skin cells; endogenous in cells; host or cells: A375 human malignant melanoma cells (crude Golgi preparation)
T1 sequence (Q16739 1-394): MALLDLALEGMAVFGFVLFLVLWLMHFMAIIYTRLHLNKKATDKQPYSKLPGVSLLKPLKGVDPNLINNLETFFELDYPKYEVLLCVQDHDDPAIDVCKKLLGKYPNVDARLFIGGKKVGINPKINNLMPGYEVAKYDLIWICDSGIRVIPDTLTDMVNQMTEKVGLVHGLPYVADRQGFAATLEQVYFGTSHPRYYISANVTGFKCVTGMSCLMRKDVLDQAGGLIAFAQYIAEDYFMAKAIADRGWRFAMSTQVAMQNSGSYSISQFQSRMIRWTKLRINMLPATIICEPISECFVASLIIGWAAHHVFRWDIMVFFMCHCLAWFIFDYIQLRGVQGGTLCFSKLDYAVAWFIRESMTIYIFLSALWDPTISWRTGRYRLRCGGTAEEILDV
Briefly: UDP-Glo glucosylceramide synthase biochemical assay. Conditions: crude Golgi preparation from A375 cells; C6 ceramide and UDP-glucose substrates; 20 h incubation at room temperature; UDP detected by luminescence. From the text: UDP-Glo™ Glucosylceramide Synthase Biochemical Assay
A UDP-Glo™ glucosylceramide synthase biochemical assay was utilized to evaluate the effect of test compounds on the activity of endogenous levels of GCS enzyme contained within Golgi preparations isolated from human A375 malignant melanoma skin cells. The UDP-Glo™ glucosylceramide synthase assay uses UDP-Glucose as a nucleotide-glycosyl donor and ceramide as substrate acceptor molecules. In the reaction, glucosylceramide synthase (GCS) transfers glucose from UDP-Glucose to ceramide. Glucosylceramide and UDP are released as products.
Using Promega's UDP-Glo™ Glycosyltransferase assay kit (Promega Corporation, Madison, WI, USA (Promega)), GCS activity was indirectly measured by detecting the amount of UDP produced. An aliquot of GCS enzyme (1.5 μg crude golgi preparation, total protein) and titrated test compound were aliquoted to each well and incubated for 30 minutes at room temperature. […] An equivalent volume of substrate mixture was then added to each well. Following a 20 h incubation at room temperature to allow for GCS turnover of substrate, an equal volume of UDP detection reagent (Promega) was added to each well and incubated for an additional 75 minutes at room temperature to simultaneously convert the accumulated UDP product into ATP and generate light in a luciferase reaction. The generated light was detected using a luminometer. […] luminescence values (RLUs) were normalized to mean “min” and “max” effects, as determined on each plate. […] Values for % Emax and EC50 were determined by best-fitting the normalized data to a curve in Activity Base along a four-parameter logistic nonlinear regression (4PL) model (based on the Levenberg-Marquardt algorithm and defined by the equation below):
[formula] where: n is 4 PMin (bottom of the curve); m is 4 PMax (top of the curve); i is IP (inflection point of curve); and p is slope. See Levenberg, K., “A Method for the Solution of Certain Problems in Least Squares”, Quart. Appl. Math. […] Math.

As to `Cc1cc(-c2ccnc3c2C(=O)N([C@H](C2CC2)C(C)(C)O)C3)c(F)cc1-c1cnn(C)c1` [Compound 35, (R)-6-(1-cyclopropyl-2-hydroxy-2-methylpropyl)-4-(2-fluoro-5-methyl-4-(1-methyl-1H-pyrazol-4-yl)phenyl)-6,7-dihydro-5H-pyrrolo[3,4-b]pyridin-5-one], the EC50 (usually the concentration that produces a half-maximal response) came to 6.8 nM.

Consider `Cc1nc(-c2cccc(-c3cccc4c3C(=O)N([C@H](C3CC3)C(C)(C)O)C4)c2)no1` [Compound 81, (R)-2-(1-cyclopropyl-2-hydroxy-2-methylpropyl)-7-(3-(5-methyl-1,2,4-oxadiazol-3-yl)phenyl)isoindolin-1-one], for which the EC50 is 31 nM.

`Cc1nnc(-c2ncc(-c3cccc4c3C(=O)N([C@H](C3CC3)C(C)(C)O)C4)cc2F)o1` [Compound 66, (R)-2-(1-cyclopropyl-2-hydroxy-2-methylpropyl)-7-(5-fluoro-6-(5-methyl-1,3,4-oxadiazol-2-yl)pyridin-3-yl)isoindolin-1-one] came in with an EC50 of 500 nM.

`Cc1nn(C)c(C)c1-c1cccc2c1C(=O)N(CCC1CN3CCC1CC3)C2` (racemic) [Compound 53, (R and S)-2-(2-(quinuclidin-3-yl)ethyl)-7-(1,3,5-trimethyl-1H-pyrazol-4-yl)isoindolin-1-one] had an EC50 of 48 nM.

Turning to `CC(C)[C@H](CO)N1Cc2cccc(NC(=O)c3nc(Cl)ccc3C(F)(F)F)c2C1=O` [Compound 132, (R)-6-chloro-N-(2-(1-hydroxy-3-methylbutan-2-yl)-3-oxoisoindolin-4-yl)-3-(trifluoromethyl)picolinamide], the EC50 came to 46 nM.

With `Cc1cnc2c(c1C(=O)Nc1cccc3c1C(=O)N(C(C1CC1)C(C)(C)O)C3)CCO2` (single isomer, unassigned) [Compound 168, (R or S)—N-(2-(1-Cyclopropyl-2-hydroxy-2-methylpropyl)-3-oxoisoindolin-4-yl)-5-methyl-2,3-dihydrofuro[2,3-b]pyridine-4-carboxamide], the EC50 stood at 0.3 nM.

Consider `Cn1cc(-c2ccc(-c3nccc4c3C(=O)N([C@H](C3CC3)C(C)(C)O)C4)cc2)cn1` [Compound 29, (R)-2-(1-cyclopropyl-2-hydroxy-2-methylpropyl)-4-(4-(1-methyl-1H-pyrazol-4-yl)phenyl)-1,2-dihydro-3H-pyrrolo[3,4-c]pyridin-3-one], for which the EC50 came out at 200 nM.

`CC(C)(O)[C@@H](C1CC1)N1Cc2cccc(-c3ccc(-n4ccnn4)cc3)c2C1=O` [Compound 69, (R)-7-(4-(1H-1,2,3-triazol-1-yl)phenyl)-2-(1-cyclopropyl-2-hydroxy-2-methylpropyl)isoindolin-1-one]: the concentration for a half-maximal effect (EC50) was 110 nM.

Regarding `CC(C)(O)C(C1CC1)N1Cc2cccc(NC(=O)c3cccc4c3CCC4)c2C1=O` (single isomer, unassigned) [Compound 114, (R or S)-N-(2-(1-cyclopropyl-2-hydroxy-2-methylpropyl)-3-oxoisoindolin-4-yl)-2,3-dihydro-1H-indene-4-carboxamide], the response was half-maximal at 1.3 nM (EC50).

The molecule `Cc1cc(-c2ccc(-c3cccc4c3C(=O)N([C@H](C3CC3)C(C)(C)O)C4)cc2)on1` [Compound 90, (R)-2-(1-cyclopropyl-2-hydroxy-2-methylpropyl)-7-(4-(3-methylisoxazol-5-yl)phenyl)isoindolin-1-one] showed an EC50 of 2 nM.

As for `CC(C)(O)C(C1CC1)N1Cc2cccc(NC(=O)c3c(Cl)cnc4c3CCO4)c2C1=O` (single isomer, unassigned) [Compound 155, (R or S)-5-Chloro-N-(2-(1-cyclopropyl-2-hydroxy-2-methylpropyl)-3-oxoisoindolin-4-yl)-2,3-dihydrofuro[2,3-b]pyridine-4-carboxamide], a half-maximal effect (EC50) was put at 0.19 nM.

`CC(C)(O)[C@@H](C1CC1)N1Cc2cccc(-c3cccc(-c4ncon4)c3)c2C1=O` [Compound 82, (R)-7-(3-(1,2,4-oxadiazol-3-yl)phenyl)-2-(1-cyclopropyl-2-hydroxy-2-methylpropyl)isoindolin-1-one] returned a 50% effective concentration (EC50) of 46 nM.
